Tests used:
[1] = biological target: T1, Recombinant IKKβ (Homo sapiens, UniProt O14920); assay: DELFIA IKKβ kinase assay (apparent Ki, Cheng-Prusoff); assay type: biochemical
T1 construct: purchased Millipore, Dundee, UK
T1 sequence (O14920 1-756): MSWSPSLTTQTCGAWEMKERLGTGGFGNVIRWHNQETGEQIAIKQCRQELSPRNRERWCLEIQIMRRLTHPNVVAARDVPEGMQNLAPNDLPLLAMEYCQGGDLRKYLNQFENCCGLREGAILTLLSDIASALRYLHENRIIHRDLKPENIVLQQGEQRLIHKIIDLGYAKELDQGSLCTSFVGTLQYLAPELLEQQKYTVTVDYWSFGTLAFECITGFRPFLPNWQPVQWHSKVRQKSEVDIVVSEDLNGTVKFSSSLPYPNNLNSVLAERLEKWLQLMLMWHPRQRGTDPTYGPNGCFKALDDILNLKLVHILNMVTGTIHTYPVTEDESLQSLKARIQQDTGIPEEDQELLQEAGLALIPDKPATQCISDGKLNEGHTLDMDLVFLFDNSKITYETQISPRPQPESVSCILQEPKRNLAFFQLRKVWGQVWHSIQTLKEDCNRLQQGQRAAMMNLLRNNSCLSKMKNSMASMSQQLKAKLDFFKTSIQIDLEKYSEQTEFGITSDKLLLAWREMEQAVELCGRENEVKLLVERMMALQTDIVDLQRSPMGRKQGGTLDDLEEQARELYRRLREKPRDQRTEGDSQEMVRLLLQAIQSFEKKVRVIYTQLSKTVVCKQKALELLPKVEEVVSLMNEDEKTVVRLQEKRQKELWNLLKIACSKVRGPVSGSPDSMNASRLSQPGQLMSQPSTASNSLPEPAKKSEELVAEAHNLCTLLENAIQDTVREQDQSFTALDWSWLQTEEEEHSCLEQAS
How it was run: (§1)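 DELFIA time-resolved fluorescence (ex 340/em 615 nm) quantified phosphorylation of a biotinylated IκB-α Ser32 peptide (0.375 μM) by 37 nM recombinant IKKα or IKKβ. Reactions used 40 μM ATP, Tris pH 7.5 buffer with MgCl2, DTT and BSA, 60 min at 30° C. Cheng-Prusoff equation gave apparent Ki.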

[2] = biological target: T2, Recombinant IKKα (Homo sapiens, UniProt O15111); assay: DELFIA IKKα kinase assay (apparent Ki, Cheng-Prusoff); assay type: biochemical
T2 construct: purchased Millipore, Dundee, UK
T2 sequence (O15111 1-745): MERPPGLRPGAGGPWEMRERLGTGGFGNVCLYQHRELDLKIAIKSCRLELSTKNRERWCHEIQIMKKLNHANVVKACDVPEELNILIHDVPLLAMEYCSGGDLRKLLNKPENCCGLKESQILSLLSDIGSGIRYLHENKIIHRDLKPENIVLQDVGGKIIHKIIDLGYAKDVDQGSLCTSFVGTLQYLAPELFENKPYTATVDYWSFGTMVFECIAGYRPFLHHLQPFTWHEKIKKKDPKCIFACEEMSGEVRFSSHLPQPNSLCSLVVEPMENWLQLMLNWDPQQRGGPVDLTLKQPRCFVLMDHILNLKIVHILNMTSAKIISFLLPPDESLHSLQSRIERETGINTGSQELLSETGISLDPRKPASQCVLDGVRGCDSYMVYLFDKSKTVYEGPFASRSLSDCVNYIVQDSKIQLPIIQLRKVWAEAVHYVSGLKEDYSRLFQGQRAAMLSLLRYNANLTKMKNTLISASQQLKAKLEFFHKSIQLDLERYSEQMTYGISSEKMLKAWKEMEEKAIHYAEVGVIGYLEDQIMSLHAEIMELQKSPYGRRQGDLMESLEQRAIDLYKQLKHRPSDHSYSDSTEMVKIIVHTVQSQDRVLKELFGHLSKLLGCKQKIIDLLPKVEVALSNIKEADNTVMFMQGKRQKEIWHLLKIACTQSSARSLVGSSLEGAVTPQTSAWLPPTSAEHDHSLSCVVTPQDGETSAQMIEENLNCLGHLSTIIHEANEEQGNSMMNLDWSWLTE
How it was run: as §1

[3] = DELFIA assay (first line of an example)
[4] = non-italicised figure: DELFIA assay

Question: How did the Ki [1, 3] turn out when Nc1n[nH]c2c(Cl)cc(-c3ccnc4[nH]c(CN5CCOCC5)cc34)cc12 [Example 276, 7-Chloro-5-(2-(morpholinomethyl)-1H-pyrrolo[2,3-b]pyridin-4-yl)-1H-indazol-3-amine] was run?
Answer: The Ki was 70 nM.

Question: And the Ki [2, 3]?
Answer: The Ki was 4 nM.

Question: Which results are given for COC(=O)Nc1cc(-c2cc(-c3ccc(C(N)=O)cc3)c3[nH]nc(N)c3c2)ccn1 [Example 327, Methyl (4-(3-amino-7-(4-carbamoylphenyl)-1H-indazol-5-yl)pyridin-2-yl)carbamate]?
Answer: Ki [1, 3]: 3790 nM; Ki [2, 3]: 614 nM

Question: What does the source list for CC(C)CC(=O)Nc1cc(-c2cc(C#CC(C)(C)C)c3[nH]nc(N)c3c2)ccn1 [Example 171, N-(4-(3-Amino-7-(3,3-dimethylbut-1-yn-1-yl)-1H-indazol-5-yl)pyridine-2-yl)-3-methylbutanamide]?
Answer: Ki [1, 4]: 5680 nM; Ki [2, 4]: 122 nM

Question: Which Ki [1, 4] does the source give for CCCCCCNc1cc(-c2ccc3[nH]nc(N)c3c2)ccn1 [Example 17, 5-(2-(Hexylamino)pyridine-4-yl)-1H-indazol-3-amine] here?
Answer: Its Ki is 1340 nM.

Question: What about the Ki [2, 4] of the same molecule?
Answer: The Ki was 114 nM.

Question: How did the Ki [1, 4] turn out when Nc1n[nH]c2ccc(-c3ccnc(NC(=O)c4ccccc4)c3)cc12 [Example 34, N-(4-(3-Amino-1H-indazol-5-yl)pyridin-2-yl)benzamide] was run?
Answer: Its Ki is 350 nM.

Question: And the Ki [2, 4]?
Answer: The Ki was 26 nM.

Question: Nc1n[nH]c2c(C#CC3(O)CCCC3)cc(-c3ccnc4[nH]ccc34)cc12 [Example 207, 1-((3-Amino-5-(1H-pyrrolo[2,3-b]pyridin-4-yl)-1H-indazol-7-yl)ethynyl)cyclopentan-1-ol] was tested. Which Ki [1, 3] did it give?
Answer: Its Ki is 1470 nM.

Question: And the Ki [2, 3]?
Answer: The Ki was 82 nM.

Question: With Nc1n[nH]c2c(Br)cc(-c3ccnc4[nH]ccc34)cc12 [Example 5, 7-Bromo-5-(1H-pyrrolo[2,3-b]pyridin-4-yl)-1H-indazol-3-amine] as the molecule, how does the Ki [1, 4] read?
Answer: The Ki was 26 nM.

Question: What about the Ki [2, 4] of the same molecule?
Answer: The Ki was 6 nM.

Question: Which results are given for Nc1cc(-c2cc(-c3cccs3)c3[nH]nc(N)c3c2)ccn1 [Example 131, 5-(2-Aminopyridin-4-yl)-7-(thiophen-2-yl)-1H-indazol-3-amine]?
Answer: Ki [1, 4]: 224 nM; Ki [2, 4]: 21 nM

Question: What does the source list for CC(C)(C)C#Cc1cc(-c2ccnc3[nH]c(CCN4CCOCC4)cc23)cc2c(N)n[nH]c12 [Example 280, 7-(3,3-Dimethylbut-1-yn-1-yl)-5-(2-(2-morpholinoethyl)-1H-pyrrolo[2,3-b]pyridin-4-yl)-1H-indazol-3-amine]?
Answer: Ki [1, 3]: 360 nM; Ki [2, 3]: 30 nM

Question: CN(CCCO)c1cc(-c2ccc3[nH]nc(N)c3c2)ccn1 [Example 29, 3-((4-(3-Amino-1H-indazol-5-yl)pyridin-2-yl)(methyl)amino)propan-1-ol] was tested. Which Ki [1, 4] did it give?
Answer: The Ki was greater than 10000 nM.

Question: What about the Ki [2, 4] of the same molecule?
Answer: The Ki was 1900 nM.

Question: Which results are given for C[C@H]1CC[C@H](Nc2cc(-c3ccc4[nH]nc(N)c4c3)ccn2)CC1 [Example 19, 5-{2-[(Trans-4-methylcyclohexyl)amino]pyridin-4-yl}-1H-indazol-3-amine]?
Answer: Ki [1, 4]: > 10000 nM; Ki [2, 4]: 170 nM

Question: Which Ki [1, 4] does the source give for Nc1cc(-c2cc(-c3cccc(CN4CCOCC4)c3)c3[nH]nc(N)c3c2)ccn1 [Example 116] here?
Answer: Its Ki is 1010 nM.

Question: And the Ki [2, 4]?
Answer: Its Ki is 162 nM.

Question: For CC(C)(C)C#Cc1cc(-c2ccnc3[nH]c(C4CCCC4)cc23)cc2c(N)n[nH]c12 [Example 295, 5-(2-Cyclopentyl-1H-pyrrolo[2,3-b]pyridin-4-yl)-7-(3,3-dimethylbut-1-yn-1-yl)-1H-indazol-3-amine], which Ki [1, 3] is on record?
Answer: Its Ki is 1160 nM.

Question: And the Ki [2, 3]?
Answer: Its Ki is 545 nM.

Question: What does the source list for Cc1n[nH]cc1Nc1cc(-c2cc(C#CC(C)(C)C)c3[nH]nc(N)c3c2)ccn1 [Example 313, 7-(3,3-Dimethylbut-1-yn-1-yl)-5-(2-((3-methyl-1H-pyrazol-4-yl)amino)pyridin-4-yl)-1H-indazol-3-amine]?
Answer: Ki [1, 3]: 940 nM; Ki [2, 3]: 24 nM

Question: Which Ki [1, 3] does the source give for COCCNC(=O)c1cc2c(-c3ccc4[nH]nc(N)c4c3)ccnc2[nH]1 [Example 240, 4-(3-Amino-1H-indazol-5-yl)-N-(2-methoxyethyl)-1H-pyrrolo[2,3-b]pyridine-2-carboxamide] here?
Answer: The Ki was 30 nM.

Question: What about the Ki [2, 3] of the same molecule?
Answer: Its Ki is 5 nM.

Question: For CN(C)CCCNC(=O)c1cc2c(-c3ccc4[nH]nc(N)c4c3)ccnc2[nH]1 [Example 247, 4-(3-Amino-1H-indazol-5-yl)-N-(3-(dimethylamino)propyl)-1H-pyrrolo[2,3-b]pyridine-2-carboxamide], which Ki [1, 3] is on record?
Answer: The Ki was 46 nM.

Question: And the Ki [2, 3]?
Answer: Its Ki is 8 nM.

Question: For Cc1coc(Nc2cc(-c3cc(C#CC(C)(C)C)c4[nH]nc(N)c4c3)ccn2)n1 [Example 315, N-(4-(3-Amino-7-(3,3-dimethylbut-1-yn-1-yl)-1H-indazol-5-yl)pyridin-2-yl)-4-methyloxazol-2-amine], which Ki [1, 3] is on record?
Answer: Its Ki is 836 nM.

Question: What about the Ki [2, 3] of the same molecule?
Answer: The Ki was 54 nM.

Question: Which Ki [1, 4] does the source give for Nc1cc(-c2cc(-c3cccc(CO)c3)c3[nH]nc(N)c3c2)ccn1 [Example 110] here?
Answer: Its Ki is 290 nM.

Question: And the Ki [2, 4]?
Answer: Its Ki is 29 nM.

Question: With CC(C)(C)C#Cc1cc(-c2ccnc(NC(=O)Nc3ccccc3)c2)cc2c(N)n[nH]c12 [Example 189, 1-(4-(3-Amino-7-(3,3-dimethylbut-1-yn-1-yl)-1H-indazol-5-yl)pyridine-2-yl)-3-phenylurea] as the molecule, how does the Ki [1, 3] read?
Answer: The Ki was 19300 nM.

Question: And the Ki [2, 3]?
Answer: Its Ki is 113 nM.

Question: How did the Ki [1, 4] turn out when COc1ccccc1C#Cc1c(-c2ccc3[nH]nc(N)c3c2)ccnc1N [Example 81, 5-(2-Amino-3-((2-methoxyphenyl)ethynyl)pyridine-4-yl)-1H-indazol-3-amine] was run?
Answer: The Ki was 484 nM.

Question: What about the Ki [2, 4] of the same molecule?
Answer: The Ki was 15 nM.

Question: Which Ki [1, 3] does the source give for Nc1n[nH]c2ccc(-c3ccnc4[nH]c(C(=O)NC5CCCC5)cc34)cc12 [Example 235, 4-(3-Amino-1H-indazol-5-yl)-N-cyclopentyl-1H-pyrrolo[2,3-b]pyridine-2-carboxamide] here?
Answer: Its Ki is 70 nM.

Question: What about the Ki [2, 3] of the same molecule?
Answer: Its Ki is 6 nM.

Question: Which results are given for CCNC(=O)Nc1cc(-c2ccc3[nH]nc(N)c3c2)ccn1 [Example 36, 1-(4-(3-Amino-1H-indazol-5-yl)pyridine-2-yl)-3-ethylurea]?
Answer: Ki [1, 4]: 838 nM; Ki [2, 4]: 20 nM

Question: How did the Ki [1, 4] turn out when Nc1cc(-c2cc(C#CCCO)c3[nH]nc(N)c3c2)ccn1 [Example 139, 4-(3-Amino-5-(2-aminopyridin-4-yl)-1H-indazol-7-yl)but-3-yn-1-ol] was run?
Answer: The Ki was 4610 nM.

Question: And the Ki [2, 4]?
Answer: Its Ki is 186 nM.

Question: For CC(C)(O)C#Cc1cc(-c2ccnc(NC3COC3)c2)cc2c(N)n[nH]c12 [Example 287, 4-(3-Amino-5-(2-(oxetan-3-ylamino)pyridin-4-yl)-1H-indazol-7-yl)-2-methylbut-3-yn-2-ol], which Ki [1, 3] is on record?
Answer: Its Ki is 2050 nM.

Question: And the Ki [2, 3]?
Answer: Its Ki is 93 nM.

Question: For COCCNC(=O)Nc1cc(-c2ccc3[nH]nc(N)c3c2)ccn1 [Example 43, 1-(4-(3-Amino-1H-indazol-5-yl)pyridin-2-yl)-3-(2-methoxyethyl)urea], which Ki [1, 4] is on record?
Answer: The Ki was 1590 nM.

Question: And the Ki [2, 4]?
Answer: The Ki was 76 nM.

Question: With Cc1cc(Nc2cc(-c3cc(C#CC(C)(C)C)c4[nH]nc(N)c4c3)ccn2)n[nH]1 [Example 312, 7-(3,3-Dimethylbut-1-yn-1-yl)-5-(2-((5-methyl-1H-pyrazol-3-yl)amino)pyridin-4-yl)-1H-indazol-3-amine] as the molecule, how does the Ki [1, 3] read?
Answer: The Ki was 210 nM.

Question: What about the Ki [2, 3] of the same molecule?
Answer: The Ki was 45 nM.

Question: With Nc1cc(-c2cc(C#Cc3ccccc3)c3[nH]nc(N)c3c2)ccn1 [Example 138, 5-(2-Aminopyridin-4-yl)-7-(phenylethynyl)-1H-indazol-3-amine] as the molecule, how does the Ki [1, 4] read?
Answer: The Ki was 5030 nM.

Question: What about the Ki [2, 4] of the same molecule?
Answer: The Ki was 81 nM.

Question: Which results are given for CC(C)OCCCNc1cc(-c2ccc3[nH]nc(N)c3c2)ccn1 [Example 27, 5-(2-((3-Isopropoxypropyl)amino)pyridin-4-yl)-1H-indazol-3-amine]?
Answer: Ki [1, 4]: 2510 nM; Ki [2, 4]: 76 nM

Question: Nc1n[nH]c2c(C#CCCCC(=O)O)cc(-c3ccnc4[nH]ccc34)cc12 [Example 214, 6-(3-Amino-5-(1H-pyrrolo[2,3-b]pyridin-4-yl)-1H-indazol-7-yl)hex-5-ynoic acid] was tested. Which Ki [1, 3] did it give?
Answer: Its Ki is 268 nM.

Question: And the Ki [2, 3]?
Answer: The Ki was 21 nM.

Question: For Nc1n[nH]c2ccc(-c3ccnc(NCCCO)c3)cc12 [Example 21, 3-((4-(3-Amino-1H-indazol-5-yl)pyridine-2-yl)amino)propan-1-ol], which Ki [1, 4] is on record?
Answer: The Ki was 796 nM.

Question: What about the Ki [2, 4] of the same molecule?
Answer: Its Ki is 15 nM.

Source: patent US20250304576A1 (Cancer Research Technology Limited, priority 2022, published 2025)
